As a reminder, the MIC is the least concentration at which growth counts as inhibited. A lower MIC goes with greater potency.

The subject of experiment [1] is Mycobacterium tuberculosis. As to the kind of experiment: Antitubercular activity against isoniazid-resistant Mycobacterium tuberculosis H37Rv ATCC 35822 after 7 days by resazurin microtiter assay. The format is functional. As to conditions: H37Rv ATCC 35822, 168 h. (In general: The colour change of resazurin is a common sign of viable cells or microbes.)
For experiment [2], the system named is Mycobacterium tuberculosis. As to the kind of experiment: Antitubercular activity against rifampicin-resistant Mycobacterium tuberculosis H37Rv ATCC 35338 after 7 days by resazurin microtiter assay. Format: functional. The conditions noted are these: H37Rv ATCC 35338, 168 h.

Each structure is given as a SMILES string. Values after ≈ are worked out from the molar mass of the structure shown.

On to `CCCCCCCC/C=C\CCCCCCCC(=O)NCc1ccccc1`, for which, in experiment [1], inhibition of growth (MIC) required 100 µg/mL (≈ 269 µM). On to `CCCCCCCCCCCCCCCCCC(=O)N[C@@H](C)c1ccccc1`, for which the MIC in experiment [2] and in experiment [1] was above 100 µg/mL each time.

As for `CCCCCC[C@@H](O)C/C=C\CCCCCCCC(=O)N[C@H](C)c1ccccc1`, the figures for the MIC in experiment [2] and in experiment [1] were 25 µg/mL (≈ 62.2 µM) and 12.5 µg/mL (≈ 31.1 µM), respectively. Take `CCCCCCCC/C=C\CCCCCCCC(=O)N1CCOCC1`: the MIC came to 12.5 µg/mL (≈ 35.6 µM) in experiment [2] and 6.25 µg/mL (≈ 17.8 µM) in experiment [1]. Taken in the same sequence, the figures for `CCCCCCCC/C=C\CCCCCCCC(=O)N1CCCC1` were 12.5 µg/mL (≈ 37.2 µM) and 6.25 µg/mL (≈ 18.6 µM). Taken in the same sequence, the figures for `CCCCCC[C@@H](O)C/C=C\CCCCCCCC(=O)N1CCCC1` were 6.25 µg/mL (≈ 17.8 µM) and 6.25 µg/mL (≈ 17.8 µM). The like results for `CCCCC/C=C\C/C=C\CCCCCCCC(=O)N[C@H](C)c1ccccc1` were, in that order, 25 µg/mL (≈ 65.2 µM) and 12.5 µg/mL (≈ 32.6 µM). With `CCCCCCCCCCCCCCCCCC(=O)N[C@H](C)c1ccccc1`, the MIC in experiment [2] and in experiment [1] was above 100 µg/mL throughout. As for `CCCCCCCC/C=C\CCCCCCCC(=O)NCCO` [OLEOYLETHANOLAMIDE], the figures for the MIC in experiment [2] and in experiment [1] were 25 µg/mL (≈ 76.8 µM) and 12.5 µg/mL (≈ 38.4 µM), respectively. Taken in the same sequence, the figures for `CCCCCCCC/C=C\CCCCCCCC(=O)N1CCCCC1` were 25 µg/mL (≈ 71.5 µM) and 12.5 µg/mL (≈ 35.8 µM). Taken in the same sequence, the figures for `CCCCCC[C@@H](O)C/C=C\CCCCCCCC(=O)N[C@@H](C)c1ccccc1` were 50 µg/mL (≈ 124 µM) and 100 µg/mL (≈ 249 µM). For `CCCCCCCC/C=C\CCCCCCCC(=O)NC(C)c1ccccc1` (configuration not stated), inhibition of growth in experiment [2] (MIC) required 100 µg/mL (≈ 259 µM). Consider `CCCCCCCCCCCCCCCC(=O)N1CCCCC1`, for which the MIC in experiment [2] and in experiment [1] was 25 µg/mL (≈ 77.3 µM) throughout.

For the compound `CCCCC/C=C\C/C=C\CCCCCCCC(=O)N[C@@H](C)c1ccccc1`, the MIC in experiment [2] is 12.5 µg/mL (≈ 32.6 µM); in experiment [1], 6.25 µg/mL (≈ 16.3 µM). As to `CCCCCCCCCCCCCCCC(=O)N[C@H](C)c1ccccc1`, the MIC in experiment [2] and in experiment [1] was above 100 µg/mL in each case.

`CCCCCCCCCCCCCCCC(=O)N1CCCC1`: the MIC in experiment [2] and in experiment [1] was 25 µg/mL (≈ 80.8 µM) throughout. As for `CCCCCCCCCCCCCCCC(=O)NCCO` [PALMIDROL], the MIC in experiment [2] and in experiment [1] was above 100 µg/mL throughout. Consider `CCCCCCCCCCCCCCCC(=O)N[C@@H](C)c1ccccc1`, for which the MIC in experiment [2] and in experiment [1] was above 100 µg/mL each time.

For `CCCCC/C=C\C/C=C\CCCCCCCC(=O)N1CCCC1`, the minimum inhibitory concentration (MIC) in experiment [2] and in experiment [1] was 12.5 µg/mL (≈ 37.5 µM) throughout. As for `CCCCCCCC/C=C\CCCCCCCC(=O)N[C@H](C)c1ccccc1`, the MIC in experiment [2] is 50 µg/mL (≈ 130 µM); in experiment [1], 12.5 µg/mL (≈ 32.4 µM). As for `CCCCCC[C@@H](O)C/C=C\CCCCCCCC(=O)NCc1ccccc1`, the MIC in experiment [2] and in experiment [1] was 12.5 µg/mL (≈ 32.2 µM) throughout.

For `CCCCCC[C@@H](O)C/C=C\CCCCCCCC(=O)N1CCOCC1`, the MIC was 12.5 µg/mL (≈ 34 µM) in experiment [2] and 6.25 µg/mL (≈ 17 µM) in experiment [1].

The values above are taken from ChEMBL document CHEMBL1221262, “Synthesis and antituberculosis activity of new fatty acid amides” (2010).
